In the supplement of paper PMC10011410:
± gives the standard deviation of the averaged measurements.

Legend:
Details in all cases: 24 h
U-2 OS [1] = assay: intracellular GSH:GSSG ratio (calculated); higher = more reduced glutathione pool
Description: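 Intracellular glutathione in U-2 OS cells after 24 h compound treatment at 5, 10 and 20 uM (some at 40 and 80 uM). Total glutathione and GSSG were measured with the GSH/GSSG-Glo kit, and the GSH:GSSG ratio was calculated. Mean of five technical replicate plates.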

U-2 OS [2] = assay: cell viability (CellTiter-Glo) relative to DMSO (% of control); higher = more viable
Description: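 Cell viability of U-2 OS cells by CellTiter-Glo after 24 h compound treatment at 5, 10 and 20 uM (some at 40 and 80 uM), measured in parallel with the glutathione assay, as percent of DMSO control. Five technical replicate plates, averaged.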

U-2 OS [3] = assay: relative cell count vs DMSO (cell painting) (fraction of DMSO control); higher = more cells remaining (less cytotoxic)
Method in brief: (§1)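 Cell painting used U-2 OS cells at about 1,500 per well in 384-well plates, treated by pin tool for 24 h at 37 °C, usually at six 2-fold concentrations from 20 μM to 625 nM. Cells were stained with MitoTracker, concanavalin A, phalloidin, wheat germ agglutinin, Hoechst and SYTO 14 and imaged on an Opera Phenix. Features were extracted with CellProfiler and normalized to DMSO cells on the same plate. The activity score is the Mahalanobis distance from DMSO wells; cell count is relative to DMSO wells. Values are means of four replicate plates.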

U-2 OS [4] = assay: cell painting activity score (Mahalanobis distance from DMSO wells); higher = stronger morphological phenotype
Method in brief: as §1

U-2 OS [5] = assay: total intracellular glutathione (GSH + GSSG) relative to DMSO (% of control); higher = more glutathione
Description: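 Total intracellular glutathione (GSH + GSSG) in U-2 OS cells by GSH/GSSG-Glo after 24 h compound treatment at 5, 10 and 20 uM (some at 40 and 80 uM), as percent of DMSO control. Five technical replicate plates, averaged.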

| SMILES | intracellular GSH:GSSG ratio (U-2 OS [1]; 5 µM) | intracellular GSH:GSSG ratio (U-2 OS [1]; 10 µM) | intracellular GSH:GSSG ratio (U-2 OS [1]; 20 µM) | intracellular GSH:GSSG ratio (U-2 OS [1]; 40 µM) | intracellular GSH:GSSG ratio (U-2 OS [1]; 80 µM) | cell viability (U-2 OS [2]; 5 µM) | cell viability (U-2 OS [2]; 10 µM) | cell viability (U-2 OS [2]; 20 µM) | cell viability (U-2 OS [2]; 40 µM) | cell viability (U-2 OS [2]; 80 µM) | relative cell count (U-2 OS [3]; 0.625 µM) | relative cell count (U-2 OS [3]; 1.25 µM) | relative cell count (U-2 OS [3]; 2.5 µM) | relative cell count (U-2 OS [3]; 5 µM) | relative cell count (U-2 OS [3]; 10 µM) | relative cell count (U-2 OS [3]; 20 µM) | relative cell count (U-2 OS [3]; 40 µM) | relative cell count (U-2 OS [3]; 80 µM) | cell painting activity score (U-2 OS [4]; 0.625 µM) | cell painting activity score (U-2 OS [4]; 1.25 µM) | cell painting activity score (U-2 OS [4]; 2.5 µM) | cell painting activity score (U-2 OS [4]; 5 µM) | cell painting activity score (U-2 OS [4]; 10 µM) | cell painting activity score (U-2 OS [4]; 20 µM) | cell painting activity score (U-2 OS [4]; 40 µM) | cell painting activity score (U-2 OS [4]; 80 µM) | total intracellular glutathione (U-2 OS [5]; 5 µM) | total intracellular glutathione (U-2 OS [5]; 10 µM) | total intracellular glutathione (U-2 OS [5]; 20 µM) | total intracellular glutathione (U-2 OS [5]; 40 µM) | total intracellular glutathione (U-2 OS [5]; 80 µM) |
| --- | --- | --- | --- | --- | --- | --- | --- | --- | --- | --- | --- | --- | --- | --- | --- | --- | --- | --- | --- | --- | --- | --- | --- | --- | --- | --- | --- | --- | --- | --- | --- |
| C=C(C)[C@@H](CC=C(C)C)C[C@@]12C[C@@H](CC=C(C)C)C(C)(C)[C@@](CC=C(C)C)(C(=O)/C(=C(\O)c3ccc(O)c(O)c3)C1=O)C2=O | 21 | 16.1 | 24.5 | 21.3 | 0.823 | 97 ± 2.7 | 101 ± 5.7 | 86.3 ± 7 | 44.8 ± 18 | 0.589 ± 0.13 | 0.996 | 0.96 | 0.961 | 0.986 | 0.836 | 0.53 | 0.267 | 0.116 | 5.64 | 4.81 | 6.25 | 5.03 | 9.54 | 9.17 | 14.9 | 28.1 | 96.4 ± 3.2 | 89 ± 1.9 | 76.7 ± 6.1 | 53.2 ± 8.8 | 5.32 ± 1.5 |
| CN(C)C/C=C/C(=O)Nc1ccc(C(=O)Nc2cccc(Nc3ncc(Cl)c(-c4c[nH]c5ccccc45)n3)c2)cc1 | 2.92 | 3.73 | 6.62 | – | – | 34.1 ± 4.7 | 31 ± 4.3 | 10.8 ± 2.7 | – | – | 0.429 | 0.45 | 0.407 | 0.251 | 0.152 | 0.164 | – | – | 22.6 | 23.3 | 23.3 | 19.2 | 18.5 | 29.4 | – | – | 26.7 ± 2.8 | 20.6 ± 2.5 | 11.6 ± 2.1 | – | – |
| C=CC(=O)Nc1cc2c(Nc3ccc(F)c(Cl)c3)ncnc2cc1OC | 19.9 | 24.8 | 20.5 | – | – | 93.5 ± 3.4 | 91.9 ± 1.7 | 86.5 ± 2.2 | – | – | 1.02 | 1.06 | 1.05 | 0.989 | 1 | 0.992 | – | – | 5.64 | 6.77 | 6.2 | 7.6 | 7.34 | 7.33 | – | – | 99.7 ± 5.3 | 96.6 ± 3.8 | 94.5 ± 4.3 | – | – |
| CCCCCCCCCCCC1=C(O)C(=O)C=C(O)C1=O | 32.2 | 27.4 | 35.5 | 15.8 | 31.4 | 102 ± 5.8 | 97.6 ± 2.5 | 98.7 ± 5.4 | 70.1 ± 25 | 93.3 ± 4.2 | 0.898 | 0.848 | 0.944 | 0.907 | 0.478 | 0.08 | 0.237 | 0.332 | 4.78 | 4.55 | 7.31 | 4.7 | 8.2 | 25 | 22.2 | 21.8 | – | – | – | – | – |
| COc1cccc2c1C(=O)c1c(O)c3c(c(O)c1C2=O)C[C@@](O)(C(=O)CO)C[C@@H]3O[C@H]1C[C@H](N)[C@H](O)[C@H](C)O1 | 12.1 | 13 | 5.76 | – | – | 54.3 ± 2.8 | 38.7 ± 6.3 | 21.7 ± 1.3 | – | – | 0.473 ± 0.035 | 0.5 ± 0.033 | 0.431 ± 0.044 | 0.404 ± 0.081 | 0.311 ± 0.025 | 0.2492 ± 0.0023 | – | – | 15.7 ± 0.51 | 17.8 ± 2.5 | 18.5 ± 2.1 | 19.7 ± 0.41 | 20.8 ± 0.47 | 24.3 ± 0.053 | – | – | 51.8 ± 7.2 | 34.9 ± 5.7 | 18.7 ± 1.3 | – | – |
| CC1=C(CO)C(=O)O[C@H](C(C)[C@H]2CC[C@@H]3[C@H]4C[C@H]5O[C@@]56[C@@H](O)C=CC(=O)[C@@]6(C)C4CC[C@@]23C)C1 (some centres not stated) | 1.55 | 4.28 | 0.143 | – | – | 55.7 ± 8.4 | 42.7 ± 2 | 59.4 ± 12 | – | – | 0.988 | 0.352 | 0.402 | 0.38 | 0.146 | 0.0181 | – | – | 10.3 | 16.1 | 17.1 | 17.6 | 29 | 20.3 | – | – | 43.6 ± 5.1 | 39.2 ± 4.1 | 32.8 ± 3.3 | – | – |
| O=C(CSC1CC(=O)N(c2cccc(Cl)c2)C1=O)Nc1ccc(Br)cc1 (configuration not stated) | 28 | 31.9 | 26.5 | – | – | 105 ± 8.8 | 99.5 ± 4.2 | 107 ± 5.8 | – | – | 1.13 | 1.13 | 1.06 | 1.06 | 1.1 | 1.12 | – | – | 3.18 | 3.28 | 3.09 | 4.23 | 3.79 | 3.43 | – | – | 94.6 ± 4.8 | 93.9 ± 4 | 95.2 ± 5.6 | – | – |
